These results are taken from patent publication US6855801B1, “Peptides modulating activities of heparin other glycosaminoglycans or proteoglycans” (Thomas Jefferson University, priority 1999, dated 2005).

Where only a bound is given, the exact number is not on record here.

The nature of test [1]: Affinity coelectrophoresis (ACE) of radiolabeled heparin through peptides. The conditions noted are these: for heparin-binding affinity in words: ACE, low Mr heparin. The test is classed as binding, pig. An excerpt:
Preparation of Radiolabeled Heparin—Whole heparin from pig intestinal mucosa (Sigma) was tyramine end-labeled and radiolabeled with Na^125I (Amersham, Pharmacia Biotech, Inc., Piscataway, N.J.) to an average specific activity ≅1.0×10^7 CPM/μg as described^59. Radiolabeled heparin was fractionated on Sephadex G-100 (Bio-Rad Laboratories, Hercules, Calif.) and the final ≅12% of material to elute was retained as the low Mr material of ≦6,000 (Jordan, R., D. Beeler, and R. Rosenberg, J Biol Chem, 254:2902-2913, 1979; Laurent, T. C., et al., Biochem J, 175:691-701, 1978).
Briefly, peptides were dissolved in 1×ACE running buffer, 50 mM sodium 3-(N-morpholino)-2-hydroxypropanesulfonate (MOPSO, Sigma)/125 mM sodium acetate, pH 7.0, and serially diluted in running buffer at 2× concentrations. Peptides were then mixed 1:1 with 2% agarose/1% CHAPS, 3-[(3-cholamidopropyl)dimethylammonio]-1-propanesulfonate, (Boehringer Mannheim, Indianapolis, Ind.), and loaded into wells of a 1% agarose gel. Radiolabeled heparin or HUVEC PGs were then loaded in a slot on the […] side of the gel, and electrophoresed through the peptide-containing wells, towards the cathode. Gels were dried and PG mobility was measured with a Phosphorimager (Molecular Dynamics, Sunnyvale, Calif.) by scanning each protein lane and determining the relative radioactivity content per. 88-μm pixel through the length of the lane. Retardation coefficient (R) measurements, binding isotherm curve fittings, and apparent Kd value determinations were calculated as detailed previously (Lee, M. K., and A. D. Lander, Proc Nat Acad Sci USA, 88:2768-2772, 1991; San Antonio, J. D., et al, Biochem, 32:47464755, 1993).
Some peptides were also analyzed by ACE for heparin-binding under reducing conditions. Thus, after serial peptide dilution, β-mercaptoethanol (β-ME) was added at 5% to each peptide sample, and these were mixed 1:1 with 2% agarose/1% CHAPS/5% β-ME, and added to the ACE gel sample wells as usual.

In test [2] the test system is unfractionated heparin. Briefly: Reversal of anti-Factor Xa activity in vitro (Stachrom Heparin chromogenic assay), unfractionated heparin. The test is classed as biochemical, human. To be noted: 0.5 U/ml anti-Factor Xa activity. The method, then:
(§1) Solutions of Lovenox, Orgaran, or unfractionated heparin (Sigma) were prepared in 0.32% sodium citrate or in normal human plasma to contain 0.5 U/ml anti-FXa activity. Calibrations were made against the standards provided by the Stachrom Heparin (Diagnostica Stago) assay kit. The heparin/ATIII complex was allowed to form at 37° C. for 2 minutes, peptide was added, the mixture was incubated for an additional 1-5 minutes, and then Factor Xa was added, and finally the color reagent, for one minute, and the absorbance was read at 405 nm. The increase in absorbance from the heparinized control to the test sample was divided by the difference in A405 between the heparinized control and the control without heparin to obtain the % reversal.

The next test relates to Orgaran. The test can be described thus: Reversal of anti-Factor Xa activity in vitro (Stachrom Heparin chromogenic assay), Orgaran. Format: biochemical, human. To be noted: 0.5 U/ml anti-Factor Xa activity. The method, then: as §1
In test [3] the test system is unfractionated heparin. The test can be described thus: Reversal of anti-thrombin effects of unfractionated heparin in vitro (thrombin clotting time in plasma). The test is classed as biochemical, human. The conditions noted are these: heparin 0.5 U/ml; thrombin standardized to clotting time 20-22 seconds. The method, then:
Plasma was obtained from normal donors. Thrombin concentration (human alpha thrombin, Enzyme Research Laboratories, South Bend, Ind.) was standardized to produce a clotting time of 20-22 seconds. Heparin was added at 0.5 IU anti-thrombin activity/ml. The clotting time for heparin alone was approximately 3 minutes. To test the effects of the peptides in this system, one minute after addition of heparin to the plasma, the peptides were added in concentrations ranging from 1-200 μg/ml. After one minute, thrombin was added and the clotting time determined. The effects of the peptides were concentration dependent. The clotting time was restored to normal values in all samples at the dosages shown below in Table III. The ability of the peptides to neutralize heparin inhibition of thrombin clotting time was consistent with the binding affinities shown in Table I, and with the effectiveness against low molecular weight heparin anti-Factor Xa activity in Table II.

The subject of the next test is Lovenox. Briefly: Reversal of anti-Factor Xa activity in vitro (Stachrom Heparin chromogenic assay), Lovenox. Format: biochemical, human. The conditions noted are these: 0.5 U/ml anti-Factor Xa activity. As to the method: as §1

Regarding YPARRARYQWVRCKP, the “heparin-binding under reducing conditions in words” value in test [1] (ACE with β-ME) was “negligible heparin-binding”. For the same sequence, the “Percent Reversal of anti-Factor Xa Activity, Heparin (unfractionated)” value (“Percent Reversal … (unfractionated)” for short) in the test on unfractionated heparin [2] (peptide 0.6 mg/ml in plasma) was 77.0%. Also, in the test with Orgaran (peptide 0.6 mg/ml in plasma), the “Percent Reversal of anti-Factor Xa Activity, Orgaran” value (“Percent Reversal … Orgaran” for short) was found to be 16.5%. Further, the “μg peptide/ml heparinized plasma needed to normalize thrombin time” value in the test on unfractionated heparin [3] is given as 15 μg peptide/ml heparinized plasma. Also, the “Percent Reversal of anti-Factor Xa Activity, Lovenox” value (“Percent Reversal … Lovenox” below) in the test with Lovenox (peptide 0.6 mg/ml in plasma) is on record as 25.0%.

As to “AKKARAAKKARAAKKARAAKKARA [(AKKARA)4, XBBXBX tandem repeat peptide]”, the “heparin-binding affinity in words” value in test [1] is reported as “moderate”. Besides, the “Percent Reversal … (unfractionated)” value in the test on unfractionated heparin [2] (peptide 0.6 mg/ml in plasma) came to 99%. In addition, the “Percent Reversal … Orgaran” value with Orgaran (peptide 0.6 mg/ml in plasma) stood at 75%. In addition, the “μg peptide/ml heparinized plasma needed to normalize thrombin time” value in the test on unfractionated heparin [3] is given as 10 μg peptide/ml heparinized plasma. Besides, the “Percent Reversal … Lovenox” value with Lovenox (peptide 0.6 mg/ml in plasma) is reported as 73%.

Take “AKKARAAKKARAAKKARAAKKARAAKKARAAKKARA [(AKKARA)6, XBBXBX tandem repeat peptide]”: in test [1], the “heparin-binding affinity in words” value is “strong”. For the same sequence, the entries for the “Percent Reversal … (unfractionated)” value in the test with unfractionated heparin [2] (peptide 0.12 mg/ml in plasma), in the test with unfractionated heparin [2] (peptide 0.4 mg/ml in plasma) and with unfractionated heparin [2] (peptide 0.6 mg/ml in plasma) were 99%, 97.5% and 93%, respectively. Besides, the “Percent Reversal … Orgaran” value in the test with Orgaran (peptide 0.12 mg/ml in plasma) came out at 74.5%; in the test with Orgaran (peptide 0.4 mg/ml in plasma), 81.5%; in the test with Orgaran (peptide 0.6 mg/ml in plasma) it was 77%. Besides, the “μg peptide/ml heparinized plasma needed to normalize thrombin time” value in the test on unfractionated heparin [3] is given as 5 μg peptide/ml heparinized plasma. Also, the “Percent Reversal … Lovenox” value in the test with Lovenox (peptide 0.12 mg/ml in plasma) was 86%; in the test on Lovenox (peptide 0.4 mg/ml in plasma) it was 86.5%; in the test on Lovenox (peptide 0.6 mg/ml in plasma), 82.5%.

With “AKKARAAKKARA [(AKKARA)2, XBBXBX tandem repeat peptide]”, in test [1], the “heparin-binding affinity in words” value is reported as “weak”. Also, the “Percent Reversal … (unfractionated)” value in the test with unfractionated heparin [2] (peptide 0.6 mg/ml in plasma) is 67.0%. For the same sequence, the “Percent Reversal … Orgaran” value with Orgaran (peptide 0.6 mg/ml in plasma) amounted to 37.0%. In addition, the “μg peptide/ml heparinized plasma needed to normalize thrombin time” value in the test on unfractionated heparin [3] is >50 μg peptide/ml heparinized plasma. The “Percent Reversal … Lovenox” value in the test on Lovenox (peptide 0.6 mg/ml in plasma) was found to be 61.5%.
